# Test results published in the supplement of paper PMC10307832.
# Legend:
# Test in all cases: relative viability (nuclei count vs DMSO), 5 days (fraction); higher = more cells survive
# TPCA-1 + Pictilisib = compound: C1=CC(=CC=C1C2=CC(=C(S2)NC(=O)N)C(=O)N)F [TPCA-1] + CS(=O)(=O)N1CCN(Cc2cc3nc(-c4cccc5[nH]ncc45)nc(N4CCOCC4)c3s2)CC1 [Pictilisib] (partner 1 µM)
# Summary of the method: (§1)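 Lung cancer cell lines, seeded in 1536-well plates, were treated the following day by pin tool with a single drug or with five library-drug doses (not always all listed) in √10 steps on top of a fixed anchor-drug dose. Cells were fixed and nuclei stained in one step after 5 days, and nuclei were counted. Relative viability is the nuclei count for treated wells divided by that for vehicle wells, reported as medians of duplicate plates.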
# [1] = compound: C1/C(=C\C2=CC=CS2)/C(=O)/C(=C/C3=CC=CS3)/C1 + Nc1nc2[nH]cc(CCc3ccc(C(=O)N[C@@H](CCC(=O)O)C(=O)O)cc3)c2c(=O)[nH]1 [Pemetrexed] (partner 0.2 µM)
# Summary of the method: as §1
# [2] = compound: C1/C(=C\C2=CC=CS2)/C(=O)/C(=C/C3=CC=CS3)/C1 + COc1cccc2cc(-c3nc([C@H]4CC[C@H](C(=O)O)CC4)n4ncnc(N)c34)[nH]c12 [OSI-027] (partner 0.5 µM)
# Summary of the method: as §1
# [3] = compound: C1/C(=C\C2=CC=CS2)/C(=O)/C(=C/C3=CC=CS3)/C1 + O=C(CCCCCCC(=O)Nc1ccccc1)NO [Vorinostat] (partner 1 µM)
# Summary of the method: as §1
Cell Line,relative viability (TPCA-1 + Pictilisib; first compound 0.04 µM),relative viability (TPCA-1 + Pictilisib; first compound 0.1265 µM),relative viability (TPCA-1 + Pictilisib; first compound 0.4 µM),relative viability (TPCA-1 + Pictilisib; first compound 1.265 µM),relative viability (TPCA-1 + Pictilisib; first compound 4 µM),relative viability ([1]; first compound 0.2 µM),relative viability ([1]; first compound 0.6325 µM),relative viability ([1]; first compound 2 µM),relative viability ([1]; first compound 6.325 µM),relative viability ([1]; first compound 20 µM),relative viability ([2]; first compound 0.2 µM),relative viability ([2]; first compound 0.6325 µM),relative viability ([2]; first compound 2 µM),relative viability ([2]; first compound 6.325 µM),relative viability ([2]; first compound 20 µM),relative viability ([3]; first compound 0.2 µM),relative viability ([3]; first compound 0.6325 µM),relative viability ([3]; first compound 2 µM),relative viability ([3]; first compound 6.325 µM),relative viability ([3]; first compound 20 µM)
LXF-289,0.836,0.698,0.797,0.735,0.499,0.911,0.839,0.889,0.858,0.852,0.869,0.811,0.852,0.696,0.729,0.821,0.829,0.772,0.732,0.724
NCI-H23,0.529,0.342,0.519,0.5,0.184,0.781,0.641,0.859,0.453,0.71,0.689,0.683,0.717,0.572,0.579,0.662,0.628,0.702,0.564,0.591
NCI-H322M,0.587,0.494,0.529,0.532,0.464,0.628,0.642,0.681,0.503,0.626,0.559,0.658,0.652,0.564,0.516,0.902,0.892,1.03,0.865,0.917
NCI-H358,0.309,0.272,0.349,0.335,0.236,0.213,0.207,0.171,0.191,0.177,0.807,0.801,0.914,,0.651,0.8,0.814,0.704,0.511,0.773
NCI-H441,0.565,0.377,0.4,0.216,0.195,0.273,0.261,0.264,0.27,0.264,0.795,0.661,0.548,0.602,0.596,0.863,0.676,0.683,0.743,0.78
NCI-H460,0.421,0.246,0.332,0.339,0.216,0.0622,0.0731,0.0616,0.0608,0.0583,0.743,0.81,0.747,0.515,0.605,0.859,0.724,0.783,0.398,0.635
NCI-H520,0.351,0.242,0.307,0.319,0.319,0.644,0.623,0.727,,0.65,0.265,0.269,0.295,0.306,0.244,0.767,0.787,0.733,,0.72
NCI-H596,0.402,0.353,0.196,0.388,0.387,0.5,0.477,0.527,0.526,0.505,0.76,0.781,1.01,0.699,0.794,0.532,0.469,0.609,0.612,0.727
NCI-H647,0.494,0.283,0.42,0.236,0.217,0.19,0.158,0.204,0.158,0.213,0.624,0.716,0.67,0.391,0.684,0.44,0.539,0.398,0.423,0.774
NCI-H650,0.928,0.864,1.03,0.538,0.787,0.813,1.02,0.948,0.941,0.858,0.578,0.465,0.591,0.53,0.485,0.432,0.436,0.419,0.413,0.373
NCI-H661,0.467,0.325,0.452,0.347,0.321,0.914,1.01,0.949,0.806,0.959,0.766,0.753,0.736,0.664,0.735,0.845,0.825,0.756,0.638,0.778
NCI-H838,0.547,0.429,0.452,0.325,0.387,0.249,0.256,0.261,0.212,0.242,0.412,0.38,0.409,0.491,0.365,0.731,0.709,0.767,0.596,0.657
NCI-H1355,0.487,0.325,0.427,0.227,0.224,1.06,0.922,1,0.96,0.971,0.481,0.42,0.412,0.335,0.424,0.664,0.627,0.705,0.598,0.587
NCI-H1395,0.694,0.66,0.68,0.505,0.607,0.889,0.912,1.08,0.819,0.971,0.672,0.614,0.772,0.597,0.643,0.668,0.767,1.03,0.744,0.8
NCI-H1437,0.508,0.439,0.423,0.538,0.29,0.286,0.362,0.353,0.252,0.311,0.866,0.782,0.889,0.88,0.834,0.91,0.853,0.837,0.701,0.866
NCI-H1650,0.7,0.537,0.592,0.423,0.422,0.35,0.392,0.42,0.373,0.367,0.727,0.713,0.743,0.544,0.733,0.49,0.44,0.796,0.56,0.498
